Source: US10457665B2, “1,4-di-(4-methylthiophenyl)-3-phtaloylazetidine-2-one and the derivatives thereof” (Universite De Nantes, priority 2015, dated 2019)

Tests used:
[1] = test system: CB1R expression in liver explants of ob/ob mice; experiment: Liver explant culture, CB1R gene expression (RT-PCR); format: cell-based, mouse; settings: liver explants of ob/ob mice treated 21 h, FIG. 1
Experimental: The liver of the mice was perfused in situ, under sodium pentobarbital anaesthesia (50 mg/kg), with Hank's medium (pH 7.4) saturated with oxygen. Next, the liver was sectioned using a Brendel/Vitron slicer (Tucson, Ariz., USA) in the same medium. The liver sections (about 200 μm) were then incubated 21 h in William's medium E (WME) oxygenated and supplemented with deactivated foetal calf serum (10%) and antibiotic/antifungal cocktail (1%) under controlled atmosphere (5% CO2), to which is added either the antagonist to be tested or vehicle.
Total messenger RNA (mRNA) extraction was carried out with Tri Reagent (Euromedex, France) and consecutive synthesis of complementary DNA (cDNA) was carried out from 1 μg of mRNA with the Bio-Rad iScripttm Reverse Transcription super mix kit (Bio-Rad, France).
Gene expression was evaluated by semi-quantitative real-time reverse transcription-polymerase chain reaction (RT-PCR). The primers used were designed using the Primer3Plus software (http://www.bioinformatics.nl/cgi-bin/primer3plus/primer3plus.cgi) and were synthesized by MWG-Biotech (TATA box-binding protein: Sense […], antisense […]; CB1R: Sense […], antisense aaccccacccagtttgaac). Semi-quantification of gene expression was obtained by taking into account the efficacy of each PCR and after standardization with the reporter gene, TATA box-binding protein.

[2] = molecular target: T1, CB1R (pcDNA3.1-mCB1) (Mus musculus, UniProt P47746); experiment: GloSensor cAMP assay in CB1R-transfected HEK293T/17 cells; format: cell-based; settings: for cAMP concentrations in the absence of agonist (AEA): HEK293T/17 cells transfected with mCB1, forskolin 1 μM, FIG. 2
T1 construct: expressed in transfected cells; host or cells: HEK293T/17 (ATCC), transient transfection with FuGENE HD
T1 sequence (P47746 whole entry): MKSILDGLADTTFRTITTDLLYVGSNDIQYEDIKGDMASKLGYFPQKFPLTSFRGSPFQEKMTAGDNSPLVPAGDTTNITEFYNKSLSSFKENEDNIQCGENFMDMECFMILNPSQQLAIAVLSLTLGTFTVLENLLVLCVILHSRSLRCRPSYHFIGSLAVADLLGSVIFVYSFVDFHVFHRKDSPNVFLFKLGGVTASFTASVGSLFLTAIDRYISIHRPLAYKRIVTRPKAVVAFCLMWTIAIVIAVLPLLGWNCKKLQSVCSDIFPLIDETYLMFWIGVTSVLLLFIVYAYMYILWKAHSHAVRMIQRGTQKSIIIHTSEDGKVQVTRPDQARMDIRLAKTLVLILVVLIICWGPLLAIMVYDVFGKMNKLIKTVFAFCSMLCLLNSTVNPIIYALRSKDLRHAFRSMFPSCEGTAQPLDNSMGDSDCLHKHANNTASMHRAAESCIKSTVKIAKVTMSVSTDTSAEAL
Experimental: HEK293T/17 (ATCC) cells were cultured in DMEM 10% FCS, then seeded at 30000 cells/well in 96-well plates. After 24 h, the cells were subjected to transient transfection by FuGENE HD (Promega) by pcDNA3.1-mCB1 (50 ng) and pGlo (100 ng) plasmids with or without pertussis toxin (PTX). For the control assays, the cells were transfected with empty pcDNA3 (EV) and pGlo vectors with or without PTX. At 48 h (24 h post-transfection), the cells were loaded for 2 h with 2% GloReagent in CO2-independent medium with 10% FCS (80 μL/well).
The cells were then treated by adding, at t=0, 10 μL/well of Forskolin (FSK) 1 μM final, in order to increase the basal cAMP concentration. The kinetics of appearance of cAMP was monitored for 10 minutes. At t=10, the molecules to be tested were added and the cAMP variations measured for 20 minutes. The light signal was measured in RLU and is expressed as % response relative to the signal read at t=10 min (FSK1 μM). Sigmoidal curves were obtained by measurement at t=10 min after addition of the molecule to be tested (thus t=20 min total) of the percentage of light signal as a function of molecule concentration. The 4PL regression was carried out using the Sigma Plot software and made it possible to obtain an EC50 (1 experiment, n=3).

[3] = test system: wild-type C57BL/6 mice; experiment: Acute oral glucose tolerance test (OGTT) in wild-type mice; format: in vivo, mouse; settings: 10 mg/kg i.p. 10 min before 2 g/kg oral glucose load, wild-type C57Bl/6J mice
Experimental: (§1) In order to evaluate the short-term effects of the rimonabant-like molecules, as well as their selectivity for CB1R, wild-type C57BL/6 mice and CB1R −/− mice underwent an oral glucose tolerance test (OGTT at 2 g/kg) 10 min after i.p. injection of vehicle or of JM-02.003 or JM-00.266 (i.e., compound IA) (10 mg/kg). Blood glucose was measured at times t=0, t=15 min, t=30 min, t=45 min, t=60 min, t=90 min, and t=120 min post-oral. glucose administration using a Contour®TS blood glucose monitor (ref. 81574201, Bayer HealthCare) and reactive strips (ref. 81574274, Bayer HealthCare).

[4] = test system: CB1R -/- mice; experiment: Acute oral glucose tolerance test (OGTT) in CB1R KO mice; format: in vivo, mouse; settings: 10 mg/kg i.p., OGTT 2 g/kg
Experimental: as §1

[5] = test system: obese C57BL/6 mice; experiment: Plasma liver markers after 30-day chronic treatment; format: in vivo, mouse
Description: (§2) In order to determine the long-term effects of the molecules of interest, C57BL/6 mice made obese by means of a high-sucrose, high-fat diet (HSHF: 30% crude fat, 33.5% carbohydrates; ref. E15126-34; ref. E15126-34, SSNIFF, Soest, Germany) for 20 weeks. These mice then received daily an i.p. injection of rimonabant, JM-00.266 (i.e., compound IA) or vehicle for a period of 30 days. In parallel, weight and food intake were monitored every two days following the beginning of the treatment.
Total cholesterol, triglycerides and hepatic markers were assayed by a Dimension Vista Intelligent Lab System (Siemens, Saint-Denis, France) using suitable reagents.

[6] = test system: obese C57BL/6 mice; experiment: Open-field test after 30-day chronic treatment; format: in vivo, mouse; settings: end of 30-day treatment, 10 mg/kg i.p.
Experimental: Locomotor activity of the mice was measured at the conclusion of the chronic treatment with rimonabant or molecule JM-00.266 (i.e., compound IA) by an infrared monitoring system. To that end, the animals were placed individually in 43×43 cm plexiglass boxes (MED associates) for 20 min. Two series of 16 pulsed infrared beams were spaced 2.5 cm apart on opposite walls to record ambulatory X-Y movements at 100 ms resolution. The centre was defined as a central 32×32 cm square. In addition to locomotor activity information, this test makes it possible to predict anxiolytic activity in response to novelty or to an anxiogenic environment. The variables measured in the open field are total ambulatory activity (in cm), the number of entries and the time spent in the central area as well as the distance traversed in the centre divided by the total distance traversed.

[7] = test system: obese C57BL/6 mice; experiment: ITT before and after 30-day chronic treatment; format: in vivo, mouse; settings: obese mice after 30 days of treatment, 10 mg/kg
Experimental: (§3) In order to evaluate the long-term effects of the treatment on blood glucose control, glucose tolerance (OGTT) and insulin sensitivity (ITT) were evaluated pre- and post-treatment. Thus, for the OGTT the mice were force-fed glucose (2 g/kg), and for the ITT the mice received an i.p. injection of insulin (0.5 IU/kg). In both cases, blood glucose was measured at times t=0, t=15 min, t=30 min, t=45 min, t=60 min, t=90 min, and t=120 min post-glucose ingestion using a Contour®TS blood glucose monitor (ref. 81574201, Bayer HealthCare) and reactive strips (ref. 81574274, Bayer HealthCare).

[8] = test system: obese C57BL/6 mice; experiment: Food intake, body weight and body composition (EchoMRI) during 30-day chronic treatment; format: in vivo, mouse
Description: as §2
The long-term effect of the treatment on body composition was measured using an EchoMRI™ scanner allowing non-invasive analysis of fat mass, lean mass and body fluid composition by nuclear magnetic resonance (NMR) on the live animal without anaesthesia.

[9] = test system: obese C57BL/6 mice; experiment: OGTT before and after 30-day chronic treatment; format: in vivo, mouse; settings: obese mice after 30 days of treatment, 10 mg/kg
Experimental: as §3

[10] = test system: CB1R expression in liver explants of ob/ob mice; settings: previous study (Jourdan et al. 2012); cited from earlier work
[11] = test system: C57BL/6 mice; experiment: Gastrointestinal transit (charcoal), anandamide-induced inhibition; format: in vivo, mouse; settings: agonist alone, 10 mg/kg i.p.
Experimental: Transit through the stomach and the intestine was measured via oral administration of vegetable charcoal suspended in gum arabic used herein as nonabsorbable marker. Briefly, following a short fast, C57BL/6 mice were injected intraperitoneally (i.p.) with anandamide (10 mg/kg) in the presence or absence of the molecule of interest JM-00.266 (i.e., compound IA) (10 mg/kg) before oral charcoal administration. 25 minutes later, the animals were sacrificed by cervical dislocation in order to entirely remove the intestine. The distance between the beginning of the pylorus and the location of the charcoal bolus was measured.

[12] = obese mice, 10 mg/kg i.p. daily, 30 days

O=C1C(N2C(=O)c3ccccc3C2=O)C(c2ccncc2)N1Cc1cccc(Cl)c1 (stereo not drawn) [JM-01.1006]
hepatic CB1R expression [1]: significant decrease
cAMP concentrations in the absence of agonist (AEA) [2]: no effect

COc1cc(OC)cc(N2C(=O)C(N3C(=O)c4ccccc4C3=O)C2c2ccncc2)c1 (stereo not drawn) [JM-02.003]
glucose tolerance compared with vehicle [3]: improves glucose tolerance
hepatic CB1R expression [1]: significant decrease
improvement in glucose tolerance in CB1R KO mice [4]: persists
cAMP concentrations in the absence of agonist (AEA) [2]: increased

CSc1ccc(C2C(N3C(=O)c4ccccc4C3=O)C(=O)N2c2ccc(Cl)cc2)cc1 (stereo not drawn) [JM-00.246]
hepatic CB1R expression [1]: not selected for the remainder of the study

CSc1ccc(C2C(N3C(=O)c4ccccc4C3=O)C(=O)N2c2ccccc2)cc1 (stereo not drawn) [JM-00.242]
hepatic CB1R expression [1]: not selected for the remainder of the study

Cc1c(C(=O)NN2CCCCC2)nn(-c2ccc(Cl)cc2Cl)c1-c1ccc(Cl)cc1 [SR141716, reference compound]
ALT and AST concentrations in plasma of obese mice versus control ([5]; 30-day chronic treatment): significantly decreased
liver damage markers compared with the control ([5]; 30-day chronic treatment): does not cause an increase
ALPI plasma concentration [5, 12]: 37.4 ± 2.4
ALT plasma concentration [5, 12]: 21.6 ± 2.3 U/L
AST plasma concentration [5, 12]: 46.4 ± 3.1 U/L
Gamma GT plasma concentration [5, 12]: <3 U/L
Total bilirubin plasma concentration [5, 12]: <2 µmol/L
motor activity [6]: increases motor activity
time spent in the centre of the arena / anxiety state [6]: not altered
insulin resistance (ITT) [7]: improved
fat mass versus control mice ([8]; end of 30-day treatment, NMR): lower fat mass
lean mass versus control mice ([8]; end of 30-day treatment, NMR): higher lean mass
body weight relative to control mice [8, 12]: lost weight
food intake compared with control mice [8, 12]: transiently decrease their food intake
basal blood glucose [9]: significant improvement
glucose tolerance (OGTT 2 g/kg) [9]: significant improvement
CB1R expression in liver explants [10]: reduced

CCCCC/C=C\C/C=C\C/C=C\C/C=C\CCCC(=O)NCCO [AEA, reference compound]
gastrointestinal transit [11]: strongly inhibited
intracellular cAMP concentration on activation of the receptors by agonist ([2]; data not shown): reduction
